Assay results reported in patent US8440813B2, “Antiviral nucleoside analogs” (BioCryst Pharmaceuticals, Inc., priority 2007, dated 2013).

Row | Compound | melting point [°C]
1 | CN(C)c1ncnn2c([C@@H]3O[C@H](CO)[C@@H](O)[C@@]3(C)O)ccc12 [Example 2, (2S,3R,4R,5R)-2-(4-(Dimethylamino)pyrrolo[1,2-f][1,2,4]triazin-7-yl)-5-(hydroxymethyl)-3-methyltetrahydrofuran-3,4-diol] | 181
2 | C=Cc1cc([C@@H]2O[C@H](CO)[C@@H](O)[C@@]2(C)O)n2ncnc(N)c12 [Example 4, (2S,3R,4R,5R)-2-(4-Amino-5-vinylpyrrolo[1,2-f][1,2,4]triazin-7-yl)-5-(hydroxymethyl)-3-methyltetrahydrofuran-3,4-diol] | 128 to 131
